Converted amounts (≈) assume the structure as drawn.
What was measured:
Test in all cases: in vitro antibacterial activity (MIC, NCCLS dilution)
Assay type in all cases: cell-based
[1] = test system: E.faecalis MGH-2 EF 1-1; settings: Enterococcus faecalis, MGH2EF11
Text: (§1) The in vitro antibacterial activity of the compounds of the present invention may be assessed by following procedures recommended in (1) National Committee for Clinical Laboratory Standards (January 2003), Methods for dilution antimicrobial tests for bacteria that grow aerobically, Approved Standard (6th ed), M7-A6, NCCLS, Wayne, Pa.; (2) National Committee for Clinical Laboratory Standards (March 2001), Method for antimicrobial susceptibility testing of anaerobic bacteria, Approved Standard (5th ed), M11-A4, NCCLS, Wayne, Pa.; (3) National Committee for Clinical Laboratory Standards (January 2003), MIC testing supplemental tables, M100-S13 (for use with M7-A6), NCCLS, Wayne, Pa.; and (4) Murray P R, Baron E J, Jorgensen J H, et al. Manual of Clinical Microbiology (8th ed) Washington, D.C.: American Society for Microbiology Press, 2003. The MJC value is the lowest concentration of drug which prevented macroscopically visible growth under the conditions of the test.

[2] = test system: S. pneumoniae SV1 SP-3; settings: Streptococcus pneumoniae, SV1SP3
Text: as §1

[3] = test system: S. aureus UC-76 SA-1; settings: Staphylococcus aureus, UC76
Text: as §1

| SMILES | MIC90 [1] | MIC90 [2] | MIC90 [3] |
| --- | --- | --- | --- |
| CN1C(=O)Cc2cc(N3C[C@H](C(N)=O)OC3=O)ccc21 [Example 1, (5R)-3-(1-methyl-2-oxo-2,3-dihydro-1H-indol-5-yl)-2-oxo-oxazolidine-5-carboxylic acid amide] | 4 µg/mL (≈ 14.5 µM) | 2 µg/mL (≈ 7.27 µM) | 2 µg/mL (≈ 7.27 µM) |
| CNC(=O)[C@H]1CN(c2ccc3c(c2)CC(=O)N3C)C(=O)O1 [Example 2] | 4 µg/mL (≈ 13.8 µM) | 2 µg/mL (≈ 6.91 µM) | 2 µg/mL (≈ 6.91 µM) |
| CN1C(=O)Cc2cc(N3C[C@H](C(N)=O)OC3=O)cc(F)c21 [Example 3, (5R)-3-(7-fluoro-1-methyl-2-oxo-2,3-dihydro-1H-indol-5-yl)-2-oxo-oxazolidine-5-carboxylic acid amide] | 16 µg/mL (≈ 54.6 µM) | 16 µg/mL (≈ 54.6 µM) | 16 µg/mL (≈ 54.6 µM) |
| CCN1C(=O)Cc2cc(N3C[C@H](C(N)=O)OC3=O)ccc21 [Example 4, (5R)-3-(1-ethyl-2-oxo-2,3-dihydro-1H-indol-5-yl)-2-oxo-oxazolidine-5-carboxylic acid amide] | 4 µg/mL (≈ 13.8 µM) | 2 µg/mL (≈ 6.91 µM) | 4 µg/mL (≈ 13.8 µM) |
| CCN1C(=O)Cc2cc(N3C[C@H](C(=O)NC)OC3=O)ccc21 [Example 5] | 4 µg/mL (≈ 13.2 µM) | 4 µg/mL (≈ 13.2 µM) | 4 µg/mL (≈ 13.2 µM) |
| NC(=O)[C@H]1CN(c2ccc3c(c2)CC(=O)N3CCF)C(=O)O1 [Example 6] | 4 µg/mL (≈ 13 µM) | 4 µg/mL (≈ 13 µM) | 4 µg/mL (≈ 13 µM) |
| CNC(=O)[C@H]1CN(c2ccc3c(c2)CC(=O)N3CCF)C(=O)O1 [Example 7] | 4 µg/mL (≈ 12.4 µM) | 4 µg/mL (≈ 12.4 µM) | 4 µg/mL (≈ 12.4 µM) |
| CC(C)N1C(=O)Cc2cc(N3C[C@H](C(N)=O)OC3=O)ccc21 [Example 8] | 4 µg/mL (≈ 13.2 µM) | 4 µg/mL (≈ 13.2 µM) | 4 µg/mL (≈ 13.2 µM) |
| CNC(=O)[C@H]1CN(c2ccc3c(c2)CC(=O)N3C(C)C)C(=O)O1 [Example 9, (5R)-3-(1-isopropyl-2-oxo-2,3-dihydro-1H-indol-5-yl)-2-oxo-oxazolidine-5-carboxylic acid methylamide] | 8 µg/mL (≈ 25.2 µM) | 4 µg/mL (≈ 12.6 µM) | 8 µg/mL (≈ 25.2 µM) |
| CC(C)N1C(=O)Cc2cc(N3C[C@H](C(N)=O)OC3=O)cc(F)c21 [Example 10, (5R)-3-(7-fluoro-1-isopropyl-2-oxo-2,3-dihydro-1H-indol-5-yl)-2-oxo-oxazolidine-5-carboxylic acid amide] | 4 µg/mL (≈ 12.4 µM) | 4 µg/mL (≈ 12.4 µM) | 4 µg/mL (≈ 12.4 µM) |
| NC(=O)[C@H]1CN(c2ccc3c(c2)CC(=O)N3C2CC2)C(=O)O1 [Example 11, (5R)-3-(1-cyclopropyl-2-oxo-2,3-dihydro-1H-indol-5-yl)-2-oxo-oxazolidine-5-carboxylic acid amide] | 16 µg/mL (≈ 53.1 µM) | 8 µg/mL (≈ 26.6 µM) | 8 µg/mL (≈ 26.6 µM) |
| CNC(=O)[C@H]1CN(c2ccc3c(c2)CC(=O)N3C2CC2)C(=O)O1 [Example 12, (5R)-3-(1-cyclopropyl-2-oxo-2,3-dihydro-1H-indol-5-yl)-2-oxo-oxazolidine-5-carboxylic acid methylamide] | 16 µg/mL (≈ 50.7 µM) | 8 µg/mL (≈ 25.4 µM) | 8 µg/mL (≈ 25.4 µM) |
| CCCN1C(=O)Cc2cc(N3C[C@H](C(N)=O)OC3=O)ccc21 [Example 13, (R)-2-oxo-3-(2-oxo-1-propyl-2,3-dihydro-1H-indol-5-yl)-oxazolidine-5-carboxylic acid amide] | 8 µg/mL (≈ 26.4 µM) | 8 µg/mL (≈ 26.4 µM) | 4 µg/mL (≈ 13.2 µM) |
| CCCN1C(=O)Cc2cc(N3C[C@H](C(=O)NC)OC3=O)ccc21 [Example 14, (R)-2-oxo-3-(2-oxo-1-propyl-2,3-dihydro-1H-indol-5-yl)-oxazolidine-5-carboxylic acid methylamide] | 4 µg/mL (≈ 12.6 µM) | 4 µg/mL (≈ 12.6 µM) | 4 µg/mL (≈ 12.6 µM) |
| CCCN1C(=O)Cc2cc(N3C[C@H](C(N)=O)OC3=O)cc(F)c21 [Example 15, (R)-3-(7-fluoro-2-oxo-1-propyl-2,3-dihydro-1H-indol-5-yl)-2-oxo-oxazolidine-5-carboxylic acid amide] | 8 µg/mL (≈ 24.9 µM) | 8 µg/mL (≈ 24.9 µM) | 4 µg/mL (≈ 12.4 µM) |
| CC(C)(C)N1C(=O)Cc2cc(N3C[C@H](C(N)=O)OC3=O)ccc21 [Example 16] | 16 µg/mL (≈ 50.4 µM) | 16 µg/mL (≈ 50.4 µM) | 8 µg/mL (≈ 25.2 µM) |
| CCC(C)N1C(=O)Cc2cc(N3C[C@H](C(N)=O)OC3=O)ccc21 (stereo partly drawn) [Example 17, (R)-3-(1-sec-butyl-2-oxo-2,3-dihydro-1H-indol-5-yl)-2-oxo-oxazolidine-5-carboxylic acid amide] | 8 µg/mL (≈ 25.2 µM) | 8 µg/mL (≈ 25.2 µM) | 4 µg/mL (≈ 12.6 µM) |
| CCC(C)N1C(=O)Cc2cc(N3C[C@H](C(=O)NC)OC3=O)ccc21 (stereo partly drawn) [Example 18, (R)-3-(1-sec-butyl-2-oxo-2,3-dihydro-1H-indol-5-yl)-2-oxo-oxazolidine-5-carboxylic acid methylamide] | 8 µg/mL (≈ 24.1 µM) | 8 µg/mL (≈ 24.1 µM) | 8 µg/mL (≈ 24.1 µM) |
| CC(CF)N1C(=O)Cc2cc(N3C[C@H](C(N)=O)OC3=O)ccc21 (stereo partly drawn) [Example 19, (R)-3-[1-(2-fluoro-1-methyl-ethyl)-2-oxo-2,3-dihydro-1H-indol-5-yl]-2-oxo-oxazolidine-5-carboxylic acid amide] | 4 µg/mL (≈ 12.4 µM) | 4 µg/mL (≈ 12.4 µM) | 4 µg/mL (≈ 12.4 µM) |
| CC(C)CN1C(=O)Cc2cc(N3C[C@H](C(N)=O)OC3=O)ccc21 [Example 20, (R)-3-(1-Isobutyl-2-oxo-2,3-dihydro-1H-indol-5-yl)-2-oxo-oxazolidine-5-carboxylic acid amide] | 64 µg/mL (≈ 202 µM) | 64 µg/mL (≈ 202 µM) | 64 µg/mL (≈ 202 µM) |
| CNC(=O)[C@H]1CN(c2ccc3c(c2)CC(=O)N3CC(C)C)C(=O)O1 [Example 21, (R)-3-(1-isobutyl-2-oxo-2,3-dihydro-1H-indol-5-yl)-2-oxo-oxazolidine-5-carboxylic acid methylamide] | 64 µg/mL (≈ 193 µM) | 64 µg/mL (≈ 193 µM) | 64 µg/mL (≈ 193 µM) |
| NC(=O)[C@H]1CN(c2ccc3c(c2)CC(=O)N3C2CCC2)C(=O)O1 [Example 22, (R)-3-(1-cyclobutyl-2-oxo-2,3-dihydro-1H-indol-5-yl)-2-oxo-oxazolidine-5-carboxylic acid amide] | 64 µg/mL (≈ 203 µM) | 64 µg/mL (≈ 203 µM) | 32 µg/mL (≈ 101 µM) |
| CNC(=O)[C@H]1CN(c2ccc3c(c2)CC(=O)N3C2CCC2)C(=O)O1 [Example 23, (R)-3-(1-cyclobutyl-2-oxo-2,3-dihydro-1H-indol-5-yl)-2-oxo-oxazolidine-5-carboxylic acid methylamide] | 64 µg/mL (≈ 194 µM) | 32 µg/mL (≈ 97.2 µM) | 16 µg/mL (≈ 48.6 µM) |

— US20060030609A1, “Oxazolidinones containing oxindoles as antibacterial agents” (priority 2004, published 2006)
